In patent US12617779B2, “Self degradation-type CDK9 inhibitor prodrug and liposome encapsulating same” (Sumitomo Pharma Co., Ltd., priority 2021, dated 2026):

Assay: Evaluation of conversion rate to active form in buffer solution (Experimental Example 1)
Format: physicochemical
Conditions: for Production rate of Alvocidib / Residual rate: 25 umol/L in buffer solution; for Stability in buffer solution at pH 5: pH 5, 37° C., up to 2 or 3 hours; for Conversion to Alvocidib at pH 7.4: pH 7.4, 37° C., up to 3 hours
Method in brief: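 25 umol/L cpd, 37° C; 50 mM citrate pH 5.0/5.5, 50 mM phosphate pH 6.0/6.5/7.0/7.4. HPLC at 0–3 h: residual rate and Alvocidib production rate.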

CCN(C[C@@H]1CCCCN1)C(=O)Oc1cc(O)c2c(=O)cc(-c3ccccc3Cl)oc2c1[C@H]1CCN(C)C[C@H]1O [Example 1, 2-(2-chlorophenyl)-5-hydroxy-8-[(3S,4R)-3-hydroxy-1-methylpiperidin-4-yl]-4-oxo-4H-1-benzopyran-7-yl ethyl{[(2S)-piperidin-2-yl]methyl}carbamate ditrifluoroacetate]
Efficiency of conversion to Alvocidib (buffer solution, 37° C.): higher efficiency | Production rate of Alvocidib (pH5.0, 0 hr, 37° C.): 0.0% | Residual rate (pH5.0, 0 hr, 37° C.): 98.7% | Stability in buffer solution at pH 5: stable | Production rate of Alvocidib (pH5.0, 0.5 hr, 37° C.): 0.4% | Residual rate (pH5.0, 0.5 hr, 37° C.): 98.4% | Production rate of Alvocidib (pH5.0, 1 hr, 37° C.): 0.7% | Residual rate (pH5.0, 1 hr, 37° C.): 98.1% | Production rate of Alvocidib (pH5.0, 2 hr, 37° C.): 1.3% | Residual rate (pH5.0, 2 hr, 37° C.): 97.4% | Production rate of Alvocidib (pH5.0, 3 hr, 37° C.): 1.8% | Residual rate (pH5.0, 3 hr, 37° C.): 96.9% | Production rate of Alvocidib (pH5.5, 0 hr, 37° C.): 0.0% | Residual rate (pH5.5, 0 hr, 37° C.): 98.8% | Production rate of Alvocidib (pH5.5, 0.5 hr, 37° C.): 1.0% | Residual rate (pH5.5, 0.5 hr, 37° C.): 97.3% | Production rate of Alvocidib (pH5.5, 1 hr, 37° C.): 1.8% | Residual rate (pH5.5, 1 hr, 37° C.): 97.1% | Production rate of Alvocidib (pH5.5, 2 hr, 37° C.): 3.5% | Residual rate (pH5.5, 2 hr, 37° C.): 95.3% | Production rate of Alvocidib (pH5.5, 3 hr, 37° C.): 5.1% | Residual rate (pH5.5, 3 hr, 37° C.): 93.8% | Production rate of Alvocidib (pH6.0, 0 hr, 37° C.): 0.0% | Residual rate (pH6.0, 0 hr, 37° C.): 99.2% | Production rate of Alvocidib (pH6.0, 0.5 hr, 37° C.): 3.3% | Residual rate (pH6.0, 0.5 hr, 37° C.): 95.5% | Production rate of Alvocidib (pH6.0, 1 hr, 37° C.): 6.3% | Residual rate (pH6.0, 1 hr, 37° C.): 92.5% | Production rate of Alvocidib (pH6.0, 2 hr, 37° C.): 12.0% | Residual rate (pH6.0, 2 hr, 37° C.): 86.8% | Production rate of Alvocidib (pH6.0, 3 hr, 37° C.): 17.0% | Residual rate (pH6.0, 3 hr, 37° C.): 81.8% | Production rate of Alvocidib (pH6.5, 0 hr, 37° C.): 0.0% | Residual rate (pH6.5, 0 hr, 37° C.): 98.4% | Production rate of Alvocidib (pH6.5, 0.5 hr, 37° C.): 8.7% | Residual rate (pH6.5, 0.5 hr, 37° C.): 90.2% | Production rate of Alvocidib (pH6.5, 1 hr, 37° C.): 16.4% | Residual rate (pH6.5, 1 hr, 37° C.): 82.0% | Production rate of Alvocidib (pH6.5, 2 hr, 37° C.): 30.1% | Residual rate (pH6.5, 2 hr, 37° C.): 68.4% | Production rate of Alvocidib (pH6.5, 3 hr, 37° C.): 40.7% | Residual rate (pH6.5, 3 hr, 37° C.): 57.7% | Production rate of Alvocidib (pH7.0, 0 hr, 37° C.): 0.0% | Residual rate (pH7.0, 0 hr, 37° C.): 98.9% | Production rate of Alvocidib (pH7.0, 0.5 hr, 37° C.): 23.2% | Residual rate (pH7.0, 0.5 hr, 37° C.): 75.0% | Production rate of Alvocidib (pH7.0, 1 hr, 37° C.): 41.1% | Residual rate (pH7.0, 1 hr, 37° C.): 57.8% | Production rate of Alvocidib (pH7.0, 2 hr, 37° C.): 65.3% | Residual rate (pH7.0, 2 hr, 37° C.): 33.5% | Production rate of Alvocidib (pH7.0, 3 hr, 37° C.): 77.1% | Residual rate (pH7.0, 3 hr, 37° C.): 21.0% | Production rate of Alvocidib (pH7.4, 0 hr, 37° C.): 0.4% | Residual rate (pH7.4, 0 hr, 37° C.): 98.5% | Conversion to Alvocidib at pH 7.4: rapidly converted to Alvocidib | Production rate of Alvocidib (pH7.4, 0.5 hr, 37° C.): 44.9% | Residual rate (pH7.4, 0.5 hr, 37° C.): 53.8% | Production rate of Alvocidib (pH7.4, 1 hr, 37° C.): 69.3% | Residual rate (pH7.4, 1 hr, 37° C.): 29.3% | Production rate of Alvocidib (pH7.4, 2 hr, 37° C.): 87.6% | Residual rate (pH7.4, 2 hr, 37° C.): 11.3% | Production rate of Alvocidib (pH7.4, 3 hr, 37° C.): 91.4% | Residual rate (pH7.4, 3 hr, 37° C.): 6.9%

CN1CC[C@H](c2c(OC(=O)N(C)C[C@@H]3CCCCN3)cc(O)c3c(=O)cc(-c4ccccc4Cl)oc23)[C@H](O)C1 [Example 3, 2-(2-chlorophenyl)-5-hydroxy-8-[(3S,4R)-3-hydroxy-1-methylpiperidin-4-yl]-4-oxo-4H-1-benzopyran-7-yl methyl{[(2S)-piperidin-2-yl]methyl}carbamate]
Production rate of Alvocidib (pH5.0, 0 hr, 37° C.): 0.2% | Residual rate (pH5.0, 0 hr, 37° C.): 99.8% | Stability in buffer solution at pH 5: stable | Production rate of Alvocidib (pH5.0, 0.5 hr, 37° C.): 0.9% | Residual rate (pH5.0, 0.5 hr, 37° C.): 99.1% | Production rate of Alvocidib (pH5.0, 1 hr, 37° C.): 1.3% | Residual rate (pH5.0, 1 hr, 37° C.): 98.7% | Production rate of Alvocidib (pH5.0, 2 hr, 37° C.): 2.2% | Residual rate (pH5.0, 2 hr, 37° C.): 97.8% | Production rate of Alvocidib (pH5.0, 3 hr, 37° C.): 3.1% | Residual rate (pH5.0, 3 hr, 37° C.): 96.9% | Production rate of Alvocidib (pH5.5, 0 hr, 37° C.): 0.3% | Residual rate (pH5.5, 0 hr, 37° C.): 99.7% | Production rate of Alvocidib (pH5.5, 0.5 hr, 37° C.): 1.8% | Residual rate (pH5.5, 0.5 hr, 37° C.): 98.2% | Production rate of Alvocidib (pH5.5, 1 hr, 37° C.): 2.7% | Residual rate (pH5.5, 1 hr, 37° C.): 97.3% | Production rate of Alvocidib (pH5.5, 2 hr, 37° C.): 4.7% | Residual rate (pH5.5, 2 hr, 37° C.): 95.3% | Production rate of Alvocidib (pH5.5, 3 hr, 37° C.): 6.5% | Residual rate (pH5.5, 3 hr, 37° C.): 93.5% | Production rate of Alvocidib (pH6.0, 0 hr, 37° C.): 0.3% | Residual rate (pH6.0, 0 hr, 37° C.): 99.7% | Production rate of Alvocidib (pH6.0, 0.5 hr, 37° C.): 4.5% | Residual rate (pH6.0, 0.5 hr, 37° C.): 95.5% | Production rate of Alvocidib (pH6.0, 1 hr, 37° C.): 7.6% | Residual rate (pH6.0, 1 hr, 37° C.): 92.2% | Production rate of Alvocidib (pH6.0, 2 hr, 37° C.): 14.1% | Residual rate (pH6.0, 2 hr, 37° C.): 85.3% | Production rate of Alvocidib (pH6.0, 3 hr, 37° C.): 19.8% | Residual rate (pH6.0, 3 hr, 37° C.): 79.4% | Production rate of Alvocidib (pH6.5, 0 hr, 37° C.): 0.3% | Residual rate (pH6.5, 0 hr, 37° C.): 99.7% | Production rate of Alvocidib (pH6.5, 0.5 hr, 37° C.): 10.6% | Residual rate (pH6.5, 0.5 hr, 37° C.): 88.9% | Production rate of Alvocidib (pH6.5, 1 hr, 37° C.): 18.3% | Residual rate (pH6.5, 1 hr, 37° C.): 80.9% | Production rate of Alvocidib (pH6.5, 2 hr, 37° C.): 33.5% | Residual rate (pH6.5, 2 hr, 37° C.): 65.3% | Production rate of Alvocidib (pH6.5, 3 hr, 37° C.): 44.6% | Residual rate (pH6.5, 3 hr, 37° C.): 53.9% | Production rate of Alvocidib (pH7.0, 0 hr, 37° C.): 0.6% | Residual rate (pH7.0, 0 hr, 37° C.): 99.4% | Production rate of Alvocidib (pH7.0, 0.5 hr, 37° C.): 26.8% | Residual rate (pH7.0, 0.5 hr, 37° C.): 72.2% | Production rate of Alvocidib (pH7.0, 1 hr, 37° C.): 43.2% | Residual rate (pH7.0, 1 hr, 37° C.): 55.3% | Production rate of Alvocidib (pH7.0, 2 hr, 37° C.): 65.2% | Residual rate (pH7.0, 2 hr, 37° C.): 20.2% | Production rate of Alvocidib (pH7.0, 3 hr, 37° C.): 74.5% | Residual rate (pH7.0, 3 hr, 37° C.): 8.0% | Production rate of Alvocidib (pH7.4, 0 hr, 37° C.): 0.9% | Residual rate (pH7.4, 0 hr, 37° C.): 99.1% | Conversion to Alvocidib at pH 7.4: rapidly converted to Alvocidib | Production rate of Alvocidib (pH7.4, 0.5 hr, 37° C.): 49.0% | Residual rate (pH7.4, 0.5 hr, 37° C.): 49.4% | Production rate of Alvocidib (pH7.4, 1 hr, 37° C.): 67.8% | Residual rate (pH7.4, 1 hr, 37° C.): 17.0% | Production rate of Alvocidib (pH7.4, 2 hr, 37° C.): 80.4% | Residual rate (pH7.4, 2 hr, 37° C.): 0.0% | Production rate of Alvocidib (pH7.4, 3 hr, 37° C.): 82.5% | Residual rate (pH7.4, 3 hr, 37° C.): 0.0%
